From patent US20240116985A1, “STAPLED PEPTIDES AND METHODS THEREOF” (priority 2020, published 2024) come the findings set out here.

This test addresses T1, full-length beta-Catenin (Uniprot ID P35222) (Homo sapiens, UniProt P35222).
T1 construct: 10 nM full-length beta-Catenin (Uniprot ID P35222)
T1 sequence (P35222 1-781): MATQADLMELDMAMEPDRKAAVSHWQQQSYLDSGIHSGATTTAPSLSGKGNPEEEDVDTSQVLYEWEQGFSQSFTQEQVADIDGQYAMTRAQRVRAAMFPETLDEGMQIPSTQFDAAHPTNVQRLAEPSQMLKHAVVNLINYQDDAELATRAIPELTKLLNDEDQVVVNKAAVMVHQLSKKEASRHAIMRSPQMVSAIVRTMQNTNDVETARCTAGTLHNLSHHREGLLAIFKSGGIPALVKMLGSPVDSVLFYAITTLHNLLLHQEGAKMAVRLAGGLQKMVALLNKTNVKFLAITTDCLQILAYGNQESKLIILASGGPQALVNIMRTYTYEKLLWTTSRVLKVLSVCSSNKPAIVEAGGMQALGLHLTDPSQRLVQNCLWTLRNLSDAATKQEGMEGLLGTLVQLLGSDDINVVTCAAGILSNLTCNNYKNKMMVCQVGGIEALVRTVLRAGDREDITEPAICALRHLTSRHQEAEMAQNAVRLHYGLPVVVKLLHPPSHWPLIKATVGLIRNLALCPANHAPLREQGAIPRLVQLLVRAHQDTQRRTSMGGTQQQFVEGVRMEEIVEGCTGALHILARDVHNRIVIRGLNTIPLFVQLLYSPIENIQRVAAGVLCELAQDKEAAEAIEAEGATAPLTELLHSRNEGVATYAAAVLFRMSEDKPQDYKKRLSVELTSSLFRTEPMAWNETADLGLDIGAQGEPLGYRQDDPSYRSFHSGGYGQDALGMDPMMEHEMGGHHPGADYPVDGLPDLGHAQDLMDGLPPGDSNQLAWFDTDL
In words: Fluorescence polarization IC50 (beta-catenin / 5FAM-TCF4 10-53 competition). The format is binding. The note with it: fluorescence polarization.

Where two headings read alike, the source gives them in different places. Non-standard residues stand in square brackets, D forms with d. Residues, ends and D or L forms follow the SMILES beside them. Bta = N[C@@H](Cc1csc2ccccc12)C(=O)O; tBuAla = CC(C)(C)C[C@H](N)C(=O)O; 3Thi = N[C@@H](Cc1ccsc1)C(=O)O; αMeP = C[C@@]1(C(=O)O)CCCN1; Aib = CC(C)(N)C(=O)O

With `CC(=O)N1CCC[C@]12CC=CCCCC1(CCCC=CCCCOC(=O)N3CC[C@@](C(=O)N[C@@H](Cc4ccsc4)C(=O)N[C@@H](Cc4csc5ccccc45)C(=O)N[C@@H](C)C(N)=O)(C3)NC(=O)[C@H](CC(C)C)NC(=O)[C@H](Cc3ccccc3)NC(=O)[C@H](C)NC(=O)C(C)(C)NC(=O)[C@H](Cc3cc(C(=O)O)cc(C(F)(F)F)c3)NC(=O)[C@H](CC(=O)O)NC1=O)NC(=O)[C@H](CC(C)(C)C)NC(=O)[C@H](CC(=O)O)NC2=O` (stereo partly drawn) [I-2212, Ac-PL3-Asp-Npg-B5-Asp-5F3Me3COOHF-Aib-Ala-Phe-Leu-PyrS2-3Thi-BztA-Ala-NH2], the concentration for half-maximal inhibition (IC50) (read-out: beta-Catenin FP IC50) was determined as 60 nM.

Turning to `CC(=O)N1CCC[C@]12CC=CCCCC1(CCCC=CCOC(=O)N(C)CC[C@@](C)(C(=O)N[C@@H](Cc3ccsc3)C(=O)N[C@@H](Cc3csc4ccccc34)C(=O)N[C@@H](CCC(N)=O)C(N)=O)NC(=O)[C@H](CC(N)=O)NC(=O)[C@H](Cc3ccccc3)NC(=O)[C@H](C)NC(=O)[C@H](C)NC(=O)[C@H]([C@@H](C)O)NC(=O)[C@H](CC(N)=O)NC1=O)NC(=O)[C@H](CC(C)(C)C)NC(=O)[C@H](CC(=O)O)NC2=O` (stereo partly drawn) [I-2213, Ac-PL3-Asp-Npg-B5-Asn-Thr-Ala-Ala-Phe-Asn-SdN-3Thi-BztA-Gln-NH2], the IC50 (read-out: beta-Catenin FP IC50) is 5250 nM.

Consider `CC(=O)N1CCC[C@]12CC=CCCCC1(CCCC=CCCCOC(=O)N3CC[C@@](C(=O)N[C@@H](Cc4cccc(-c5ccccc5)c4)C(=O)N[C@@H](Cc4ccccc4)C(=O)N[C@@H](CCC(N)=O)C(N)=O)(C3)NC(=O)[C@H](CC(C)C)NC(=O)[C@H](Cc3ccccc3)NC(=O)[C@H](C)NC(=O)[C@H](C)NC(=O)[C@H](Cc3cccc(C(=O)O)c3)NC(=O)[C@H](CC(=O)O)NC1=O)NC(=O)[C@H](CC(C)(C)C)NC(=O)[C@H](CC(=O)O)NC2=O` (stereo partly drawn) [I-2214, Ac-PL3-Asp-Npg-B5-Asp-3COOHF-Ala-Ala-Phe-Leu-PyrS2-[Ph]-3SF-Phe-Gln-NH2], for which the IC50 (read-out: beta-Catenin FP IC50) worked out at 1860 nM.

In the case of `CC(=O)N1CCC[C@]12CC=CCCCC1(CCCC=CCCCOC(=O)N3CC[C@@](C(=O)N[C@@H](Cc4cccc(C5CC5)c4)C(=O)N[C@@H](Cc4ccccc4)C(=O)N[C@@H](CCC(N)=O)C(N)=O)(C3)NC(=O)[C@H](CC(C)C)NC(=O)[C@H](Cc3ccccc3)NC(=O)[C@H](C)NC(=O)[C@H](C)NC(=O)[C@H](Cc3cccc(C(=O)O)c3)NC(=O)[C@H](CC(=O)O)NC1=O)NC(=O)[C@H](CC(C)(C)C)NC(=O)[C@H](CC(=O)O)NC2=O` (stereo partly drawn) [I-2215, Ac-PL3-Asp-Npg-B5-Asp-3COOHF-Ala-Ala-Phe-Leu-PyrS2-[CyPr]-3SF-Phe-Gln-NH2], under “read-out: beta-Catenin FP IC50”, the 50% inhibitory concentration (IC50) stood at 1540 nM.

In the case of `CC(=O)N1CCC[C@@]1(C)C(=O)N[C@@H](CC(=O)O)C(=O)N[C@@H](CC(C)(C)C)C(=O)NC(C)(C)C(=O)N[C@@H](CC(=O)O)C(=O)N[C@@H](CC(=O)O)C(=O)N[C@@H](C)C(=O)N[C@@H](C)C(=O)N[C@@H](Cc1ccccc1)C(=O)N[C@@H](CCC(N)=O)C(=O)NC(C)(C)C(=O)N[C@@H](Cc1ccsc1)C(=O)N[C@@H](Cc1csc2ccccc12)C(=O)N[C@@H](Cc1c[nH]cn1)C(N)=O` [I-2228, Ac-MePro-Asp-Npg-Aib-Asp-Asp-Ala-Ala-Phe-Gln-Aib-3thi-BztA-His-NH2] (Ac-[αMeP]D[tBuAla][Aib]DDAAFQ[Aib][3Thi][Bta]H-NH2), the IC50 (read-out: beta-Catenin FP IC50) came out at 2140 nM.

Take `CC(=O)N1CCC[C@]12CC=CCCCC1(CCCC=CCCCOC(=O)N3CC[C@@](C(=O)N[C@@H](Cc4ccsc4)C(=O)N[C@@H](Cc4csc5ccccc45)C(=O)N[C@@H](Cc4c[nH]cn4)C(=O)N[C@@H](CCCCN)C(N)=O)(C3)NC(=O)[C@H](CCC(N)=O)NC(=O)[C@H](Cc3ccccc3)NC(=O)[C@H](C)NC(=O)[C@H](C)NC(=O)[C@H](CC(=O)O)NC(=O)[C@H](CC(=O)O)NC1=O)NC(=O)[C@H](CC(C)(C)C)NC(=O)[C@H](CC(=O)O)NC2=O` (stereo partly drawn) [I-2229, Ac-PL3-Asp-Npg-B5-Asp-Asp-Ala-Ala-Phe-Gln-PyrS2-3thi-BztA-His-Lys-NH2]: the IC50 (read-out: beta-Catenin FP IC50) worked out at 6 nM.

As to `CC(=O)N1CCC[C@]12CC=CCCCC1(CCCC=CCCCOC(=O)N3CC[C@@](C(=O)N[C@@H](Cc4ccsc4)C(=O)N[C@@H](Cc4csc5ccccc45)C(=O)N[C@@H](Cc4c[nH]cn4)C(=O)N[C@@H](CCCCN)C(N)=O)(C3)NC(=O)[C@H](CCC(N)=O)NC(=O)[C@H](Cc3ccccc3)NC(=O)[C@H](C)NC(=O)[C@H](C)NC(=O)[C@H](CC(=O)O)NC(=O)[C@H](CC(=O)O)NC1=O)NC(=O)[C@H](CC(C)(C)C)NC(=O)[C@H](CC(=O)O)NC2=O` (stereo partly drawn) [I-2230, Ac-PL3-Asp-Npg-B5-Asp-Asp-Ala-Ala-Phe-Gln-PyrS2-3thi-BztA-His-Lys-NH2], the IC50 (read-out: beta-Catenin FP IC50) turned out to be 8 nM.

Regarding `CC(=O)N1CCC[C@@]1(C)C(=O)N[C@@H](CC(=O)O)C(=O)N[C@@H](CC(C)(C)C)C(=O)NC(C)(C)C(=O)N[C@@H](CC(=O)O)C(=O)N[C@@H](CC(=O)O)C(=O)N[C@@H](C)C(=O)N[C@@H](C)C(=O)N[C@@H](Cc1ccccc1)C(=O)N[C@@H](CCC(N)=O)C(=O)NC(C)(C)C(=O)N[C@@H](Cc1ccsc1)C(=O)N[C@@H](Cc1csc2ccccc12)C(=O)N[C@@H](Cc1c[nH]cn1)C(=O)N[C@@H](CCCCN)C(N)=O` [I-2231, Ac-MePro-Asp-Npg-Aib-Asp-Asp-Ala-Ala-Phe-Gln-Aib-3thi-BztA-His-Lys-NH2] (Ac-[αMeP]D[tBuAla][Aib]DDAAFQ[Aib][3Thi][Bta]HK-NH2), the IC50 (read-out: beta-Catenin FP IC50) stood at 5190 nM.

As for `CC(=O)N1CCC[C@]12CC=CCCCC1(CCCC=CCCCOC(=O)N3CC[C@@](C(=O)N[C@@H](Cc4ccsc4)C(=O)N[C@@H](Cc4csc5ccccc45)C(=O)N[C@@H](CCC(N)=O)C(N)=O)(C3)NC(=O)[C@H](CC(C)C)NC(=O)[C@H](Cc3ccccc3)NC(=O)[C@H](C)NC(=O)[C@H](C)NC(=O)[C@H](CN(CC(=O)O)C(=O)c3ccc(CN4CCOCC4)cc3)NC(=O)[C@H](CC(=O)O)NC1=O)NC(=O)[C@H](CC(C)(C)C)NC(=O)[C@H](CC(=O)O)NC2=O` (stereo partly drawn) [I-2238, Ac-PL3-Asp-Npg-B5-Asp-[MeMorphBz]GA-Ala-Ala-Phe-Leu-PyrS2-3Thi-BztA-Gln-NH2], the IC50 (read-out: beta-Catenin FP IC50) was determined as 11 nM.

Turning to `CC(=O)N1CCC[C@]12CC=CCCCC1(CCCC=CCCCOC(=O)N3CC[C@@](C(=O)N[C@@H](Cc4ccsc4)C(=O)N[C@@H](Cc4csc5ccccc45)C(=O)N[C@@H](CCC(N)=O)C(N)=O)(C3)NC(=O)[C@H](CC(C)C)NC(=O)[C@H](Cc3ccccc3)NC(=O)[C@H](C)NC(=O)[C@H](C)NC(=O)[C@H](CCN(CC(=O)O)C(=O)CCN(C)C)NC(=O)[C@H](CC(=O)O)NC1=O)NC(=O)[C@H](CC(C)(C)C)NC(=O)[C@H](CC(=O)O)NC2=O` (stereo partly drawn) [I-2244, Ac-PL3-Asp-Npg-B5-Asp-[Me2NPr]GAbu-Ala-Ala-Phe-Leu-PyrS2-3Thi-BztA-Gln-NH2], the IC50 (read-out: beta-Catenin FP IC50) was found to be 16 nM.

For `CC(=O)N1CCC[C@]12CC=CCCCC1(CCCC=CCCCOC(=O)N3CC[C@@](C(=O)N[C@@H](Cc4ccsc4)C(=O)N[C@@H](Cc4csc5ccccc45)C(=O)N[C@@H](CCC(N)=O)C(N)=O)(C3)NC(=O)[C@H](CC(C)C)NC(=O)[C@H](Cc3ccccc3)NC(=O)[C@H](C)NC(=O)[C@H](C)NC(=O)[C@H](CCN(CC(=O)O)C(=O)CN3CCOCC3)NC(=O)[C@H](CC(=O)O)NC1=O)NC(=O)[C@H](CC(C)(C)C)NC(=O)[C@H](CC(=O)O)NC2=O` (stereo partly drawn) [I-2249, Ac-PL3-Asp-Npg-B5-Asp-[MorphAc]GAbu-Ala-Ala-Phe-Leu-PyrS2-3Thi-BztA-Gln-NH2], the half-maximal inhibitory concentration (IC50) (read-out: beta-Catenin FP IC50) amounted to 14 nM.

On to `CC(=O)N1CCC[C@]12CC=CCCCC1(CCCC=CCCCOC(=O)N3CC[C@@](C(=O)N[C@@H](Cc4ccsc4)C(=O)N[C@@H](Cc4csc5ccccc45)C(=O)N[C@@H](CCC(N)=O)C(N)=O)(C3)NC(=O)[C@H](CC(C)C)NC(=O)[C@H](Cc3ccccc3)NC(=O)[C@H](C)NC(=O)[C@H](C)NC(=O)[C@H](CCN(CC(=O)O)C(=O)CN3CCN(C)CC3)NC(=O)[C@H](CC(=O)O)NC1=O)NC(=O)[C@H](CC(C)(C)C)NC(=O)[C@H](CC(=O)O)NC2=O` (stereo partly drawn) [I-2250, Ac-PL3-Asp-Npg-B5-Asp-[MePipAc]GAbu-Ala-Ala-Phe-Leu-PyrS2-3Thi-BztA-Gln-NH2], for which the IC50 (read-out: beta-Catenin FP IC50) was found to be 12 nM.

As for `CC(C)C[C@@H]1NC(=O)[C@H](Cc2ccccc2)NC(=O)[C@H](C)NC(=O)[C@H](C)NC(=O)[C@H](Cc2cccc(C(=O)O)c2)NC(=O)[C@H](CC(=O)O)NC(=O)C2(CCCC=CCCCOC(=O)N3CC[C@@](C(=O)N[C@@H](Cc4ccccc4Cl)C(=O)N[C@@H](Cc4csc5ccccc45)C(=O)N[C@@H](C)C(N)=O)(C3)NC1=O)CCCC=CC[C@]1(CCCN1C(=O)CCl)C(=O)N[C@@H](CC(=O)O)C(=O)N[C@@H](CC(C)(C)C)C(=O)N2` (stereo partly drawn) [I-2253, ClAc-PL3-Asp-Npg-B5-Asp-3COOHF-Ala-Ala-Phe-Leu-PyrS2-2C1F-BztA-Ala-NH2], the IC50 (beta-Catenin FP IC50 (nM)) amounted to 189 nM.

As to `CC(=O)N1CCC[C@]12CC=CCCCC1(CCCC=CCCCOC(=O)N3CC[C@@](C(=O)N[C@@H](Cc4cccc(-c5ccccc5)c4)C(=O)N[C@@H](Cc4ccsc4)C(=O)N[C@@H](CCC(N)=O)C(N)=O)(C3)NC(=O)[C@H](CC(C)C)NC(=O)[C@H](Cc3ccccc3)NC(=O)[C@H](C)NC(=O)[C@H](C)NC(=O)[C@H](Cc3cccc(C(=O)O)c3)NC(=O)[C@H](CC(=O)O)NC1=O)NC(=O)[C@H](CC(C)(C)C)NC(=O)[C@H](CC(=O)O)NC2=O` (stereo partly drawn) [I-2254, Ac-PL3-Asp-Npg-B5-Asp-3COOHF-Ala-Ala-Phe-Leu-PyrS2-[Ph]3SF-3Thi-Gln-NH2], the IC50 (read-out: beta-Catenin FP IC50) is 5790 nM.

As a reminder, the IC50 is the midpoint of a concentration-inhibition curve.
